Test results from US7705189B2, “Calixarene compound, process for producing the same, intermediate therefor, and composition thereof” (JSR Corporation, priority 2004, dated 2010).

assay: Solubility test (2 ml solvent added to 2 mg derivative); type: physicochemical; settings: not given
Description: A solubility test was carried out by adding 2 ml of each of the solvents shown in Table 4 to 2 mg of each of the derivatives listed in Table 4.

For `CC1=C2OCOc3c4cc5c(c3C)OCOc3c6cc7c(c3C)OCOc3c8cc9c(c3C)OCOc3c%10cc%11c(c3C)OCOc3c%12cc%13c(c3C)OCOc3c(cc%14c(c3C)OCOc3c%15cc%16c(c3C)OCOc3c(cc%17c(c3C)OCOc3c%18cc%19c(c3C)OCOc3c(cc%20c(c3C)OCOc3c(cc%21c(c3C)OCOC1=C(C=C2C4CCCC9%10)C%21CCCC%18%17)C%20CCCC56)C%19CCCC%15%14)C%16CCCC%11%12)C%13CCCC78` (stereo not drawn) [formula (33)], the “Solubility in acetone and methylene chloride” value was “dissolved in acetone and methylene chloride”.

assay: Thermal characteristics by TG/DTA; type: physicochemical; settings: nitrogen atmosphere, temperature rise 10° C./min
From the text: TG/DTA and DSC were used for the determination of the decomposition initiation temperature, 5% mass reduction temperature, and glass transition temperature of the derivatives shown in Table 3. The glass transition temperature could not be determined in any of the compounds. All compounds were confirmed to have high heat resistance. Comparison of T3 with T3-7 in which vinyl ether was deprotected and a spacer was introduced confirmed that there were almost no changes in the decomposition initiation temperature and 5% mass reduction temperature caused by introduction of the spacer. The lower decomposition initiation temperatures of these compounds as compared with other derivatives are due to their slight acidity resulting from the hydroxyl groups. […] T3-2a decomposed in two stages, that is, first the decomposition of phthalic acid ester bond and second the decomposition of the ester bond of methacryloyl groups.

Going from `Oc1cc(O)c2cc1C1CCCC3c4cc(c(O)cc4O)C4CCCC5c6cc(c(O)cc6O)C(CCCC6c7cc(c(O)cc7O)C(CCCC7c8cc(c(O)cc8O)C(CCCC(c8cc(c(O)cc8O)C(CCCC2c2cc4c(O)cc2O)c2cc7c(O)cc2O)c2cc1c(O)cc2O)c1cc6c(O)cc1O)c1cc5c(O)cc1O)c1cc3c(O)cc1O` [T3] to `OCCOc1cc(OCCO)c2cc1C1CCCC3c4cc(c(OCCO)cc4OCCO)C4CCCC5c6cc(c(OCCO)cc6OCCO)C(CCCC6c7cc(c(OCCO)cc7OCCO)C(CCCC7c8cc(c(OCCO)cc8OCCO)C(CCCC(c8cc(c(OCCO)cc8OCCO)C(CCCC2c2cc4c(OCCO)cc2OCCO)c2cc7c(OCCO)cc2OCCO)c2cc1c(OCCO)cc2OCCO)c1cc6c(OCCO)cc1OCCO)c1cc5c(OCCO)cc1OCCO)c1cc3c(OCCO)cc1OCCO` [T3-7], the “First decomposition temperature: 5% mass decomposition temperature” value falls from 365 °C to 348 °C.

Going from `C=COCCOc1cc(OCCOC=C)c2cc1C1CCCC3c4cc(c(OCCOC=C)cc4OCCOC=C)C4CCCC5c6cc(c(OCCOC=C)cc6OCCOC=C)C(CCCC6c7cc(c(OCCOC=C)cc7OCCOC=C)C(CCCC7c8cc(c(OCCOC=C)cc8OCCOC=C)C(CCCC(c8cc(c(OCCOC=C)cc8OCCOC=C)C(CCCC2c2cc4c(OCCOC=C)cc2OCCOC=C)c2cc7c(OCCOC=C)cc2OCCOC=C)c2cc1c(OCCOC=C)cc2OCCOC=C)c1cc6c(OCCOC=C)cc1OCCOC=C)c1cc5c(OCCOC=C)cc1OCCOC=C)c1cc3c(OCCOC=C)cc1OCCOC=C` [T3-6] to `C=C(C)C(=O)Oc1cc(OC(=O)C(=C)C)c2cc1C1CCCC3c4cc(c(OC(=O)C(=C)C)cc4OC(=O)C(=C)C)C4CCCC5c6cc(c(OC(=O)C(=C)C)cc6OC(=O)C(=C)C)C(CCCC6c7cc(c(OC(=O)C(=C)C)cc7OC(=O)C(=C)C)C(CCCC7c8cc(c(OC(=O)C(=C)C)cc8OC(=O)C(=C)C)C(CCCC(c8cc(c(OC(=O)C(=C)C)cc8OC(=O)C(=C)C)C(CCCC2c2cc4c(OC(=O)C(=C)C)cc2OC(=O)C(=C)C)c2cc7c(OC(=O)C(=C)C)cc2OC(=O)C(=C)C)c2cc1c(OC(=O)C(=C)C)cc2OC(=O)C(=C)C)c1cc6c(OC(=O)C(=C)C)cc1OC(=O)C(=C)C)c1cc5c(OC(=O)C(=C)C)cc1OC(=O)C(=C)C)c1cc3c(OC(=O)C(=C)C)cc1OC(=O)C(=C)C` [T3-1], the “First decomposition temperature: 5% mass decomposition temperature” value rises from 365 °C to 418 °C.

Going from `Oc1cc(O)c2cc1C1CCCC3c4cc(c(O)cc4O)C4CCCC5c6cc(c(O)cc6O)C(CCCC6c7cc(c(O)cc7O)C(CCCC7c8cc(c(O)cc8O)C(CCCC(c8cc(c(O)cc8O)C(CCCC2c2cc4c(O)cc2O)c2cc7c(O)cc2O)c2cc1c(O)cc2O)c1cc6c(O)cc1O)c1cc5c(O)cc1O)c1cc3c(O)cc1O` [T3] to `OCCOc1cc(OCCO)c2cc1C1CCCC3c4cc(c(OCCO)cc4OCCO)C4CCCC5c6cc(c(OCCO)cc6OCCO)C(CCCC6c7cc(c(OCCO)cc7OCCO)C(CCCC7c8cc(c(OCCO)cc8OCCO)C(CCCC(c8cc(c(OCCO)cc8OCCO)C(CCCC2c2cc4c(OCCO)cc2OCCO)c2cc7c(OCCO)cc2OCCO)c2cc1c(OCCO)cc2OCCO)c1cc6c(OCCO)cc1OCCO)c1cc5c(OCCO)cc1OCCO)c1cc3c(OCCO)cc1OCCO` [T3-7], the “First decomposition temperature: Decomposition initiation temperature” value rises from 333 °C to 375 °C.

Going from `C=COCCOc1cc(OCCOC=C)c2cc1C1CCCC3c4cc(c(OCCOC=C)cc4OCCOC=C)C4CCCC5c6cc(c(OCCOC=C)cc6OCCOC=C)C(CCCC6c7cc(c(OCCOC=C)cc7OCCOC=C)C(CCCC7c8cc(c(OCCOC=C)cc8OCCOC=C)C(CCCC(c8cc(c(OCCOC=C)cc8OCCOC=C)C(CCCC2c2cc4c(OCCOC=C)cc2OCCOC=C)c2cc7c(OCCOC=C)cc2OCCOC=C)c2cc1c(OCCOC=C)cc2OCCOC=C)c1cc6c(OCCOC=C)cc1OCCOC=C)c1cc5c(OCCOC=C)cc1OCCOC=C)c1cc3c(OCCOC=C)cc1OCCOC=C` [T3-6] to `C=C(C)C(=O)Oc1cc(OC(=O)C(=C)C)c2cc1C1CCCC3c4cc(c(OC(=O)C(=C)C)cc4OC(=O)C(=C)C)C4CCCC5c6cc(c(OC(=O)C(=C)C)cc6OC(=O)C(=C)C)C(CCCC6c7cc(c(OC(=O)C(=C)C)cc7OC(=O)C(=C)C)C(CCCC7c8cc(c(OC(=O)C(=C)C)cc8OC(=O)C(=C)C)C(CCCC(c8cc(c(OC(=O)C(=C)C)cc8OC(=O)C(=C)C)C(CCCC2c2cc4c(OC(=O)C(=C)C)cc2OC(=O)C(=C)C)c2cc7c(OC(=O)C(=C)C)cc2OC(=O)C(=C)C)c2cc1c(OC(=O)C(=C)C)cc2OC(=O)C(=C)C)c1cc6c(OC(=O)C(=C)C)cc1OC(=O)C(=C)C)c1cc5c(OC(=O)C(=C)C)cc1OC(=O)C(=C)C)c1cc3c(OC(=O)C(=C)C)cc1OC(=O)C(=C)C` [T3-1], the “First decomposition temperature: Decomposition initiation temperature” value rises from 336 °C to 387 °C.
